Laboratory results reported in US20240238459A1, “Granzyme-Activatable Membrane-Interacting Peptides and Methods of Use” (priority 2021, published 2024).
Peptide text beside a SMILES is read from it. * marks the point of attachment. DOTA = O=C(O)CN1CCN(CC(=O)O)CCN(CC(=O)*)CCN(CC(=O)O)CC1; Ahx = NCCCCCC(=O)O

Key:
RAJI tumors = experiment: PET/CT in mice bearing RAJI xenografts given anti-CD19 CAR T cells; assay type: in vivo, mouse
Protocol: Mice bearing subcutaneous RAJI xenografts and administered anti-CD19 CAR T cells were imaged using ^64Cu-GRIP B PET/CT. Peripheral blood mononuclear cells were obtained from normal blood donor leukoreduction filters (Vitalant Blood Services). CD4+ and CD8+ T-cells were isolated via magnetic bead selection, activated with anti-CD3/CD28 beads, lentivirally transduced with a validated anti-CD19 CAR construct, and expanded in vitro with IL-2. In parallel, mice were injected with 1e6 Raji cells subcutaneously in the right flank. At tumor size of ˜400 mm3 5e6 CAR-expressing T-cells were implanted IV into each mouse. Mice received anti-CD19 CAR T cells or empty CAR Ts. After 6 days, the mice received ^64Cu-GRIP B (˜300 uCi/mouse) and were imaged from 0-4 hours post injection. The data depicted in FIG. 7 show images and region of interest analysis gathered at 4 hours post injection.
Additionally, mice bearing orthotopic RAJI xenografts and treated with activated CAR T cell based therapy were imaged using ^64Cu-GRIP B PET/CT. Raji cells (1e5) were administered orthotopically via tail vein injection to encourage seeding in abdominal tissues. This model was evaluated as subcutaneous Raji tumors are known to be intrinsically immunosuppressive.
Peripheral blood mononuclear cells were obtained from normal blood donor leukoreduction filters (Vitalant Blood Services). […]

EMT6 = experiment: Biodistribution in mice bearing EMT6 tumors treated with vehicle or CPI; assay type: in vivo, mouse; settings: EMT6 cohort
Protocol: Next, the biodistribution of ^64Cu-GRIP B and ^64Cu-D-GRIP B was compared in mice bearing MC38 (mouse colorectal cancer) or EMT6 (mouse mammary breast carcinoma) xenografts. The mice were treated with vehicle or anti-PD1 and anti-CTLA4 CPIs following the schema used for the CT26 cohort.

secreted GZMB = target: T1, secreted GZMB (Mus musculus, UniProt P04187); experiment: PET/CT and biodistribution after intratracheal LPS instillation; assay type: in vivo
T1 construct: from tissue; host or cells: live wild type mice; lungs and other organs after intratracheal LPS
T1 sequence (P04187 21-247): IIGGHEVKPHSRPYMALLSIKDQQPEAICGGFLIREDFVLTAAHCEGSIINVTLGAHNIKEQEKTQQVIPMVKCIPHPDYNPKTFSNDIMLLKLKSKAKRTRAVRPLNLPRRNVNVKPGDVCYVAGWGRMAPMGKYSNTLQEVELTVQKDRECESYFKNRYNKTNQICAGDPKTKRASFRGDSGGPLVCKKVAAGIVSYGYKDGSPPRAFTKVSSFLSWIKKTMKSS
Protocol: Though not well defined, non-cytotoxic functions for secreted GZMB have been proposed in several physiological processes, for example inflammation. To test if ^64Cu-GRIP B can localize potentially pathogenic reservoirs of secreted GZMB due to inflammation, ^64Cu-GRIP B PET/CT was performed on wild type mice that had received intratracheal instillations of lipopolysaccharide (LPS). PET/CT was performed four days after the instillation, a time point at which T cell recruitment to the lungs has occurred. […] Since 3 mg/kg LPS can trigger systemwide T cell activation, radiotracer uptake was examined in a larger panel of mouse organs. […] Remarkably, the systemwide impact on T cell activation due to the intratracheal instillation of LPS was also visually obvious by comparing maximum intensity projections between treatment arms (FIG. 6, panel E).

M. marinum = experiment: PET in M. marinum myositis model; assay type: in vivo, mouse
Text: Neither M. marinum nor the L. monoctyogenes induced ^64Cu-GRIP B uptake in live bacterial abscesses compared to heat killed controls.

recombinant human GZMB = recombinant human GZMB (Homo sapiens, UniProt P10144); experiment: Cleavage of GRIP B / ^64Cu-GRIP B by recombinant human GZMB (rad-HPLC); assay type: biochemical; settings: incubation with recombinant human GZMB (400 nM per FIG. 2D legend); product comigrated with cold cleaved DOTA-peptide fragment
Sequence of recombinant human GZMB (P10144 21-247): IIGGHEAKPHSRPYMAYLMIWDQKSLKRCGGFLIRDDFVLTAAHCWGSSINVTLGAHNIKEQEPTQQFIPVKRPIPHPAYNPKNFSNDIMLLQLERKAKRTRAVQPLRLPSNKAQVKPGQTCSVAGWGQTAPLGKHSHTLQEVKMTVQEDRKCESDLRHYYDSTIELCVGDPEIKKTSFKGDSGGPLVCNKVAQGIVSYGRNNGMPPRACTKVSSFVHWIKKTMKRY

CC[C@H](C)[C@H](NC(=O)[C@H](CCCCN)NC(=O)CNC(=O)[C@H](CC(C)C)NC(=O)[C@H](Cc1ccccc1)NC(=O)[C@H](CCCCN)NC(=O)[C@H](CO)NC(=O)[C@H](Cc1ccccc1)NC(=O)[C@H](Cc1c[nH]c2ccccc12)NC(=O)[C@H](CCC(N)=O)NC(=O)[C@@H](NC(=O)[C@H](Cc1ccccc1)NC(=O)CCCCCNC(=O)CN1CCN(CC(=O)O)CCN(CC(=O)O)CCN(CC(=O)O)CC1)C(C)C)C(=O)N[C@@H](CCC(=O)O)C(=O)N1CCC[C@H]1C(=O)N[C@@H](CC(=O)O)C(=O)N[C@H](C(=O)N[C@@H](CO)C(=O)N[C@@H](CCC(N)=O)C(=O)N[C@H](C(=O)N[C@@H](CCC(N)=O)C(=O)N[C@@H](CC(=O)O)C(=O)N1CCC[C@H]1C(=O)N[C@@H](CC(N)=O)C(=O)N[C@@H](CC(=O)O)C(=O)N[C@@H](CCC(N)=O)C(=O)N[C@@H](Cc1ccc(O)cc1)C(=O)N[C@@H](CCC(=O)O)C(=O)N1CCC[C@H]1C(=O)N[C@@H](Cc1ccccc1)C(=O)O)C(C)C)C(C)C [^64Cu-GRIP B, metal not drawn] ({DOTA-Ahx}-FVQWFSKFLGKIEPDVSQVQDPNDQYEPF-OH)
uptake in tumor bearing livers (RAJI tumors; orthotopic RAJI tumors in liver, CD19 CAR Ts, ROI and post mortem dosimetry): induce ^64Cu-GRIP B uptake in tumor bearing livers | detection of granzyme B production from activated CAR T cells (RAJI tumors; subcutaneous and orthotopic RAJI, anti-CD19 CAR T vs empty CAR Ts, 4 hours post injection): can detect granzyme B production from activated CAR T cells | tumoral uptake after CPI compared to controls (EMT6): significant increase | autoradiography of the lungs, LPS treated (secreted GZMB; co-localized with GZMB and CD3 staining): visually higher radiotracer binding | ex vivo biodistribution, LPS treated versus vehicle mice (secreted GZMB; either dose, including spleen and thymus): significantly higher in numerous tissues | radiotracer accumulation in the lungs, LPS compared to vehicle (secreted GZMB; low (0.1 mg/kg) and high (3 mg/kg) doses of LPS, four days after instillation, ROI analysis): significantly higher | radiotracer uptake compared to normal muscle (M. marinum): significant increase | uptake in live bacterial abscesses compared to heat killed controls (M. marinum): did not impact | time to conversion to one radiolabeled product (recombinant human GZMB): ≤ 30 min
